Legend:
Sprague-Dawley rats = experiment: Forced swimming test after sensitization paradigm; assay type: in vivo; details: V animals; TEMPOL 288 μmol/kg/day 15 days from D11; after three weeks of CMS applied at D31
Protocol: Sprague-Dawley rats were subjected to chronic social defeat (CSD) and then, four weeks later, to three weeks of chronic mild stress (SSP rats). The chronic mild stress protocol (CMS) was performed as previously described (see Blugeot et al., 2011). The control rats were control intruders (not subjected to CSD) not exposed to the three weeks of CMS (C rats).
The CMS protocol is derived from that described by Willner et al. (1992). Briefly, various mild stresses were applied every day, over a period of three weeks. Briefly, from Monday to Friday, every morning, animals were placed in a small cage (10×16×15 cm) for 1 hour. In the afternoon, they were shaken for 10 min (Monday and Thursday), placed in a small cage containing water (2 cm high, Tuesday) or placed in another cage for 4 hours (Wednesday and Friday). Every night, the cage was inclined (45°, Tuesday and Thursday) or contained wet bedding (Wednesday and Friday). On Saturday and Sunday, the rats were subjected to a reversed dark/light cycle for 30 min, every three hours.
Four days after the end of SSP paradigm (D52), FST experiments were performed between 08:00 and 11:30. Experiments were performed as described by Becker et al. (2008, Mol. Psychiatry 13, 1079) and Blugeot et al. (2011). Immobility time was measured with a stopwatch. […] A trained experimenter blind to the treatment observed the animals and measured immobility time. […]

HPA axis = experiment: Activity of the HPA (corticotropic) axis; assay type: in vivo, Sprague-Dawley rats; details: vulnerable animals vs vulnerable animals treated with vehicle
Protocol: Tempol (4-hydroxy-2,2,6,6-tetramethylpiperidine 1-oxyl), which was administered at a dose of 288 μmol/kg/day [Sigma-Aldrich, St Louis, Mo., USA]), was dissolved in distilled water and delivered via ALZET osmotic mini-pumps (2002, Charles River Laboratories, France). Tempol- or distilled water-filled pumps were implanted subcutaneously on the back of intruder rats under light anesthesia with isofluorane, 11 days after completion of the social-defeat procedure (D11), and were left in place for 15 days.
When the rats were killed (at D57), blood from trunk vessels was collected into chilled tubes and corticosterone was quantified by RIA (ICN Biomedicals, Orsay, France), using [125I]corticosterone as a radiotracer (Andre et al., 2005). Adrenal glands were removed, dissected free of adhering fat, and weighed. Organ weights are expressed relative to body weights (mg gland/100 g body weight). Rats were decapitated at midday in a quiet separate room, one by one, with the bench cleaned between rats.

lipid peroxidation (MDA) = experiment: Lipid peroxidation (TBARS/MDA) in hippocampus; assay type: in vivo, Sprague-Dawley rats; details: V rats; 288 μmol/kg/day, 15 days from D11; D31
Protocol: The right hippocampus was homogenized in ice-cold buffer (Tris-HCl 50 mM pH 7.5, 150 mM NaCl, 1 mM EDTA) and used for TBARS and glutathione peroxidase (GPx) assays.
For the TBARS assay, protease inhibitors (50 μl/ml), DOC (1%), SDS (0.1%) and Triton® X-100 (0.5%) were added immediately in ice-cold buffer. For the GPx assay, 0.1 M dithiothreitol was added immediately in ice-cold buffer. The homogenates were centrifuged and the supernatants were retained for analysis. Lipid peroxidation was assessed by measuring TBARS formation with a commercial assay kit (Cayman Chemical, Ann Arbor, Mich., USA), in accordance with the manufacturer's instructions. TBARS concentration was calculated from an MDA standard curve and normalized. Total GPx activity in the homogenate was measured in accordance with the kit manufacturer's instructions (Cayman Chemical, Ann Arbor, Mich., USA). GPx specific activity is expressed as nmoles of NADPH consumed per minute per mg of hippocampal tissue. No difference in hippocampal weight was observed between defeated, vulnerable, non-vulnerable and control animals.
Tempol (4-hydroxy-2,2,6,6-tetramethylpiperidine 1-oxyl), which was administered at a dose of 288 μmol/kg/day [Sigma-Aldrich, St Louis, Mo., USA]), was dissolved in distilled water and delivered via ALZET osmotic mini-pumps (2002, Charles River Laboratories, France). […]

`CC1(C)CC(O)CC(C)(C)N1[O]` [TEMPOL, 4-hydroxy-2,2,6,6-tetramethylpiperidin-1-oxyl] was tested, and the “immobility time in the forced swimming test” value (Sprague-Dawley rats) was “prevented the increase in immobility time”, the adrenal gland weight (HPA axis) was “prevented the increase” and the corticosterone levels (HPA axis) was “prevented the increase of corticosterone levels”. For the same molecule, the “lipid peroxidation (MDA)” value (lipid peroxidation (MDA)) was “lack of”.

Source: patent publication US20190060298A1, “NEW DRUG FOR THE TREATMENT AND/OR PREVENTION OF DEPRESSIVE DISORDERS” (SORBONNE UNIVERSITE, priority 2013, published 2019)
